Test results taken from US20240158446A1, “CYCLIC COMPOUND HAVING SELECTIVE INHIBITORY ACTION ON KRAS OVER HRAS AND NRAS” (CHUGAI SEIYAKU KABUSHIKI KAISHA, priority 2021, published 2024).
Like-named read-outs stand apart in the source and are kept apart here. *1 amine or outer side, *2 acyl side, *3 side chain or, on linkers, in order; H or OH if unused. Where a SMILES comes first, the peptide text is derived from it. Bridges are numbered along the chain shown (N, C = ends). [ ]: non-standard residue; d: D form. The star is where a group is joined. hPhe(3-Cl-4-CF3) = N[C@@H](CCc1ccc(C(F)(F)F)c(Cl)c1)C(=O)O; NPrPhe(4-CF3) = CCCN[C@@H](Cc1ccc(C(F)(F)F)cc1)C(=O)O; NMeGly(cPent) = CN[C@H](C(=O)O)C1CCCC1; Hyp = O=C(O)[C@@H]1C[C@@H](O)CN1; NMeD = CN[C@@H](CC(=O)O)C(=O)O; NMeL = CN[C@@H](CC(C)C)C(=O)O; X50 = O=C(CN(CCF)[*:1])[*:2]; Morpholide = C1CN(*)CCO1; Ac5c = NC1(C(=O)O)CCCC1; Ac4c = NC1(C(=O)O)CCC1; Sar = CNCC(=O)O

Legend:
[1] = biological target: GDP-bound KRAS wild-type protein (Homo sapiens, UniProt P01116); test: Binding to KRAS by surface plasmon resonance (SPR), Single Cycle Kinetics; conditions: GDP-bound KRAS wild-type protein, read-out: KRAS KD
GDP-bound KRAS wild-type protein, sequence (P01116 whole entry): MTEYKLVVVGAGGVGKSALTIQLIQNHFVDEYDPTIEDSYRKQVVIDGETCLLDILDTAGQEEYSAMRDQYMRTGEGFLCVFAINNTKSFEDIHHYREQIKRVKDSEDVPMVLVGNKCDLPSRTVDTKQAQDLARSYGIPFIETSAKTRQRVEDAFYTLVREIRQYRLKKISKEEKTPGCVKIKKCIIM

[2] = biological target: GDP-bound NRAS wild-type protein (Homo sapiens, UniProt P01111); test: Binding to NRAS by surface plasmon resonance (SPR), Single Cycle Kinetics; conditions: for NRAS/KRAS (ratio of KD value for NRAS to KD value for KRAS) / NRAS/KRAS (ratio of KD value with respect to NRAS to KD value with respect to KRAS): SPR, GDP-bound NRAS wild-type protein vs GDP-bound KRAS wild-type protein; for NRAS/KRAS (ratio of KD value with respect to GDP-bound NRAS wild-type protein to KD value with respect to KRAS): SPR KD ratio NRAS/KRAS, class symbols
GDP-bound NRAS wild-type protein, sequence (P01111 whole entry): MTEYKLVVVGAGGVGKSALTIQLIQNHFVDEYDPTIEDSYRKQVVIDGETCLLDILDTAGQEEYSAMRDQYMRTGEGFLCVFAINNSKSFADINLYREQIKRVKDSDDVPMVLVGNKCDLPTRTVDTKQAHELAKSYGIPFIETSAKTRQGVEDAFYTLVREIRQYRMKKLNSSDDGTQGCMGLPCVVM

[3] = biological target: GDP-bound HRAS wild-type protein (Homo sapiens, UniProt P01112); test: Binding to HRAS by surface plasmon resonance (SPR), Single Cycle Kinetics; conditions: for HRAS/KRAS (ratio of KD value for HRAS to KD value for KRAS) / HRAS/KRAS (ratio of KD value with respect to HRAS to KD value with respect to KRAS): SPR, GDP-bound HRAS wild-type protein vs GDP-bound KRAS wild-type protein; for HRAS/KRAS (ratio of KD value with respect to GDP-bound HRAS wild-type protein to KD value with respect to KRAS): SPR KD ratio HRAS/KRAS, class symbols
GDP-bound HRAS wild-type protein, sequence (P01112 whole entry): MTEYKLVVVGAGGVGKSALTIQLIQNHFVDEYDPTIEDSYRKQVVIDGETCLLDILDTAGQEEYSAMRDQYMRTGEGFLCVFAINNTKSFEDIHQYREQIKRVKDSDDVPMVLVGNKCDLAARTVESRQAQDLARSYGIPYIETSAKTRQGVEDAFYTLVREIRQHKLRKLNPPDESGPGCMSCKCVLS

[4] = SPR Single Cycle Kinetics, 1:1 binding model

| Structure (SMILES) | Kd [1, 4] [nM] | NRAS/KRAS (ratio of KD value for NRAS to KD value for KRAS) [2] | HRAS/KRAS (ratio of KD value for HRAS to KD value for KRAS) [3] | NRAS/KRAS (ratio of KD value with respect to NRAS to KD value with respect to KRAS) [2] | HRAS/KRAS (ratio of KD value with respect to HRAS to KD value with respect to KRAS) [3] | further results |
| --- | --- | --- | --- | --- | --- | --- |
| CCCN1C(=O)CN(C)C(=O)CNC(=O)[C@H]([C@@H](C)CC)NC(=O)[C@H](CC(C)C)N(C)C(=O)C[C@@H](C(=O)N(C)C)NC(=O)[C@H](C2CCCC2)N(C)C(=O)C2(CCCC2)NC(=O)[C@@H]2CCCN2C(=O)[C@H](CCc2ccc(C(F)(F)F)c(Cl)c2)NC(=O)CN(C)C(=O)[C@@H]1Cc1ccc(C(F)(F)F)cc1 [PP0361] ([NMeL]IG[Sar][NPrPhe(4-CF3)][Sar][hPhe(3-Cl-4-CF3)]P[Ac5c][NMeGly(cPent)]D-NMe2; lactam N-11) | 0.72 | B (a compound having 3 or more and less than 10 is denoted as B) | C (A compound having a KD ratio of 0.1 or more and less than 3 is denoted as C) |  |  |  |
| CCCN1C(=O)CN(C)C(=O)CN(CCF)C(=O)[C@H]([C@@H](C)CC)NC(=O)[C@H](CC(C)C)N(C)C(=O)C[C@@H](C(=O)N2CCOCC2)N(C)C(=O)[C@H](C2CCCC2)N(C)C(=O)C2(CCCC2)NC(=O)[C@@H]2CCCN2C(=O)[C@H](CCc2ccc(C(F)(F)F)c(Cl)c2)NC(=O)CN(C)C(=O)[C@@H]1Cc1ccc(C(F)(F)F)cc1 [PP0751] ([NMeL]I[X50][Sar][NPrPhe(4-CF3)][Sar][hPhe(3-Cl-4-CF3)]P[Ac5c][NMeGly(cPent)][NMeD]-Morpholide; lactam N-11) | 0.52 |  |  | B (a compound having 3 or more and less than 10 is denoted as B) | C (A compound having a KD ratio of 0.1 or more and less than 3 is denoted as C) |  |
| CCCN1C(=O)CN(C)C(=O)CN(C)C(=O)[C@H]([C@@H](C)CC)NC(=O)[C@H](CC(C)C)N(C)C(=O)C[C@@H](C(=O)N2CCOCC2)N(C)C(=O)[C@H](C2CCCC2)N(C)C(=O)C2(CCCC2)NC(=O)[C@@H]2C[C@@H](O)CN2C(=O)[C@H](CCc2ccc(C(F)(F)F)c(Cl)c2)NC(=O)CN(C)C(=O)[C@@H]1Cc1ccc(C(F)(F)F)cc1 [PP0241] ([NMeL]I[Sar][Sar][NPrPhe(4-CF3)][Sar][hPhe(3-Cl-4-CF3)][Hyp][Ac5c][NMeGly(cPent)][NMeD]-Morpholide; lactam N-11) | 0.052 | B (a compound having 3 or more and less than 10 is denoted as B) | C (A compound having a KD ratio of 0.1 or more and less than 3 is denoted as C) |  |  |  |
| CCO[C@@H]1C[C@H]2C(=O)NC3(CCC3)C(=O)N(C)[C@@H](C(CC)CC)C(=O)N(C)[C@H](C(=O)N(C)C)CC(=O)N(C)[C@@H](CC3CCCC3)C(=O)N[C@@H]([C@@H](C)CC)C(=O)N(C)CC(=O)N(C)[C@H]3C/C=C\CCN(C3=O)[C@@H](Cc3ccc(F)cc3C)C(=O)N(C)CC(=O)N[C@@H](CCc3cc(F)c(C(F)(F)F)c(F)c3)C(=O)N2C1 [PP1516] |  |  |  |  |  | Kd ([1]; SPR, Single Cycle Kinetics, 1:1 binding model): 0.98 nM; NRAS/KRAS (ratio of KD value for NRAS to KD value for KRAS) ([2]; KD ratio class): A (a compound having 10 or more and less than 20 is denoted as A); HRAS/KRAS (ratio of KD value for HRAS to KD value for KRAS) ([3]; KD ratio class): B (a compound having 3 or more and less than 10 is denoted as B) |
| CCCN1C(=O)CN(C)C(=O)CNC(=O)[C@H]([C@@H](C)CC)NC(=O)[C@H](CC(C)C)N(C)C(=O)C[C@@H](C(=O)N(C)C)N(C)C(=O)[C@H](C2CCCC2)N(C)C(=O)C2(CCC2)NC(=O)[C@@H]2C[C@@H](OCC)CN2C(=O)[C@H](CCc2ccc(C(F)(F)F)c(Cl)c2)NC(=O)CN(C)C(=O)[C@@H]1Cc1ccc(C(F)(F)F)cc1 [PP0422] ([NMeL]IG[Sar][NPrPhe(4-CF3)][Sar][hPhe(3-Cl-4-CF3)][Hyp](Et)[Ac4c][NMeGly(cPent)][NMeD]-NMe2; lactam N-11) | 0.017 |  |  | B (a compound having 3 or more and less than 10 is denoted as B) | B (a compound having 3 or more and less than 10 is denoted as B) |  |
| CCCN1C(=O)CN(C)C(=O)CNC(=O)[C@H]([C@@H](C)CC)NC(=O)[C@H](CC(C)C)N(C)C(=O)C[C@@H](C(=O)N(C)C)NC(=O)[C@H](C2CCCC2)N(C)C(=O)C2(CCC2)NC(=O)[C@@H]2C[C@@H](OCC)CN2C(=O)[C@H](CCc2ccc(C(F)(F)F)c(Cl)c2)NC(=O)CN(C)C(=O)[C@@H]1Cc1ccc(C(F)(F)F)cc1 [PP0366] ([NMeL]IG[Sar][NPrPhe(4-CF3)][Sar][hPhe(3-Cl-4-CF3)][Hyp](Et)[Ac4c][NMeGly(cPent)]D-NMe2; lactam N-11) | 0.38 | B (a compound having 3 or more and less than 10 is denoted as B) | B (a compound having 3 or more and less than 10 is denoted as B) |  |  |  |
| CCO[C@@H]1C[C@H]2C(=O)NC3(CCC3)C(=O)N(C)[C@@H](C3CCCC3)C(=O)N(C)[C@H](C(=O)N(C)C)CC(=O)N(C)[C@@H](CC3CCCC3)C(=O)N[C@@H]([C@@H](C)CC)C(=O)N(C)CC(=O)N(C)[C@H]3C/C=C\CCN(C3=O)[C@@H](Cc3ccc(C)cc3)C(=O)N(C)CC(=O)N[C@@H](CCc3ccc(C4CC4)c(F)c3)C(=O)N2C1 [PP2683] | 0.87 |  |  |  |  | NRAS/KRAS (ratio of KD value with respect to GDP-bound NRAS wild-type protein to KD value with respect to KRAS) [2]: A (a compound having 10 or more and less than 20 is denoted as A); HRAS/KRAS (ratio of KD value with respect to GDP-bound HRAS wild-type protein to KD value with respect to KRAS) [3]: A (a compound having 10 or more and less than 20 is denoted as A) |
| CCO[C@@H]1C[C@H]2C(=O)NC3(CCC3)C(=O)N(C)[C@@H](C3CCCC3)C(=O)N(C)[C@H](C(=O)N(C)C)CC(=O)N(C)[C@@H](Cc3cccs3)C(=O)N[C@@H]([C@@H](C)CC)C(=O)N(C)CC(=O)N(C)[C@H]3C/C=C\CCN(C3=O)[C@@H](Cc3ccc(C(F)(F)F)cc3)C(=O)N(C)CC(=O)N[C@@H](CCc3cc(F)c(C(F)(F)F)c(F)c3)C(=O)N2C1 [PP1123, (2S,8S,12R,14S,20S,23S,27S,30S,36S,38Z)-20-cyclopentyl-8-[2-[3,5-difluoro-4-(trifluoromethyl)phenyl]ethyl]-12-ethoxy-N,N,4,19,22,26,32,35-octamethyl-30-[(1S)-1-methylpropyl]-3,6,9,15,18,21,25,28,31,34,42-undecaoxo-27-(2-thienylmethyl)-2-[[4-(trifluoromethyl)phenyl]methyl]spiro[1,4,7,10,16,19,22,26,29,32,35-undecazatricyclo[34.5.1.0^10,14]dotetracont-38-ene-17,1′-cyclobutane]-23-carboxamide] |  | A (a compound having 10 or more and less than 20 is denoted as A) | B (a compound having 3 or more and less than 10 is denoted as B) |  |  | Kd ([1]; SPR, Single Cycle Kinetics): 0.072 nM |
| CCO[C@@H]1C[C@H]2C(=O)NC3(CCC3)C(=O)N(C)[C@@H](C3CCCC3)C(=O)N(C)[C@H](C(=O)N(C)C)CC(=O)N(C)[C@@H](CC)C(=O)N[C@@H]([C@@H](C)CC)C(=O)N(C)CC(=O)N(C)[C@H]3CCCCN(C3=O)[C@@H](Cc3ccc(C(F)(F)F)cc3)C(=O)N(C)CC(=O)N[C@@H](CCc3ccc4sccc4c3)C(=O)N2C1 [PP0887] |  | C (A compound having a KD ratio of 0.1 or more and less than 3 is denoted as C) | C (A compound having a KD ratio of 0.1 or more and less than 3 is denoted as C) |  |  | Kd ([1]; SPR, Single Cycle Kinetics): 0.093 nM |
| CCO[C@@H]1C[C@H]2C(=O)NC3(CC(C)(C)C3)C(=O)N(C)[C@@H](C3CCCC3)C(=O)N(C)[C@H](C(=O)N3CCCC3)CC(=O)N(C)[C@H]3CCCC/C=C/c4ccc(cc4)C[C@@H](C(=O)N(C)CC(=O)N[C@@H](CCc4ccc(Cl)c(Cl)c4)C(=O)N2C1)N1CC/C=C\C[C@@H](C1=O)N(C)C(=O)CN(C)C(=O)[C@H]([C@@H](C)CC)NC3=O [PP2593] | 0.15 |  |  |  |  | NRAS/KRAS (ratio of KD value with respect to GDP-bound NRAS wild-type protein to KD value with respect to KRAS) [2]: A (a compound having 10 or more and less than 20 is denoted as A); HRAS/KRAS (ratio of KD value with respect to GDP-bound HRAS wild-type protein to KD value with respect to KRAS) [3]: A (a compound having 10 or more and less than 20 is denoted as A) |
| CC[C@H](C)[C@@H]1NC(=O)[C@H](CC(C)C)N(C)C(=O)C[C@@H](C(=O)N2CCOCC2)N(C)C(=O)[C@H](C2CCCCC2)N(C)C(=O)C2(CCCC2)NC(=O)[C@@H]2CCCN2C(=O)[C@H](CCc2cc(F)c(C(F)(F)F)c(F)c2)NC(=O)CN(C)C(=O)[C@H](Cc2ccc(C(F)(F)F)cc2)N2CCCCC[C@@H](C2=O)N(C)C(=O)CN(C)C1=O [PP0505] | 10 |  |  | B (a compound having 3 or more and less than 10 is denoted as B) | B (a compound having 3 or more and less than 10 is denoted as B) |  |
| C#CC[C@H]1C(=O)N[C@@H]([C@@H](C)CC)C(=O)N(C)CC(=O)N(C)[C@H]2CCCCN(C2=O)[C@@H](Cc2ccc(C(F)(F)F)cc2)C(=O)N(C)CC(=O)N[C@@H](CCc2cc(F)c(C(F)(F)F)c(F)c2)C(=O)N2C[C@H](OCC)C[C@H]2C(=O)NC2(CCC2)C(=O)N(C)[C@@H](C2CCCC2)C(=O)N(C)[C@H](C(=O)N(C)C)CC(=O)N1C [PP0696] | 0.012 |  |  | B (a compound having 3 or more and less than 10 is denoted as B) | B (a compound having 3 or more and less than 10 is denoted as B) |  |
